Common to all, as to assay: NCI anticancer screen, dose series, 48 h
The test system of assay [1] is DMS-114.
Assay [2] relates to KM-20L2.
Assay [3] concerns SNB-78.
In assay [4] the test system is RXF 631.
Assay [5] has as its system LXFL 529.
Assay [6] has as its system DMS-273.
Assay [7] relates to XF498.
Assay [8] concerns DLD-1.
For assay [9], the system named is HOP-18.

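Five concentrations, 48 hours, 96-well plates. The concentration for 50% growth inhibition is given as GI50.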 Calls of active or inactive are those of the source. No stated cut-off is given here; in the data, active = GI50 up to about 1.1 µM and inactive = higher. Some results are limits rather than exact numbers.

Take `O=C(NCCCCCCNC(=O)OCCSCCn1cc(C(=O)NC(=O)OCc2ccccc2)c(=O)[nH]c1=O)OCCSCCn1cc(C(=O)NC(=O)OCc2ccccc2)c(=O)[nH]c1=O`: the GI50 in assay [1], in assay [2], in assay [3], in assay [4], in assay [5] and in assay [6] was > 100 µM (inactive) throughout. Also, the GI50 in assay [7] and in [8] was > 100 µM (inactive) each time.

On to `COc1ccc2nc3ccccc3c(NCCCCCCN(C)CCCl)c2c1`, for which the GI50 in [1] is 0.166 µM (active); in assay [2], 0.172 µM (active); in [3], 0.33 µM (active); in [5], 0.262 µM (active); in assay [6] it was 0.0488 µM (active); in [7], 0.2 µM (active). In addition, the GI50 in assay [8] is 0.164 µM (active).

In the case of `COc1ccc2c(c1)Oc1cc(O)ccc1[C@H]2c1ccccc1C(=O)NC(C)c1ccccc1` (some centres undefined), the GI50 is 11.5 µM (inactive) in [1]; 19.1 µM (inactive) in assay [2]; 16.6 µM (inactive) in assay [3]; 15.3 µM (inactive) in assay [5]; 14.5 µM (inactive) in assay [6]; 18.2 µM (inactive) in assay [8].

In the case of `Cc1ccc(-n2nc(C(OC3OC(CO)C(O)C(O)C3O)C(O)CO)c3nc4cc(C)c(C)cc4nc32)cc1` (centres undefined), the GI50 in assay [1], in [2], in assay [3], in assay [4], in assay [5] and in assay [7] was > 100 µM (inactive) in each case. Besides, the GI50 in [8] was > 100 µM (inactive).

For the molecule `CC1=C2[C@@H](c3ccccc3)C3C=CC2(c2ccccc23)N(C(=O)Nc2cccc3ccccc23)C1=O` (some centres undefined), the GI50 in assay [1], in [2], in [3], in assay [9], in assay [5] and in assay [6] was > 100 µM (inactive) throughout. For the same molecule, the GI50 in assay [7] is > 100 µM (inactive).

As for `Cc1ccc(Nc2nc3c(s2)C(=O)c2ccccc2C3=O)c(C)c1`, the GI50 in [1] is 8.59 µM (inactive); in assay [2], 37.3 µM (inactive); in assay [3], 15.2 µM (inactive); in [9], 4.57 µM (inactive); in [5], 15 µM (inactive); in [6], 19.6 µM (inactive). Moreover, the GI50 in assay [7] is 17.3 µM (inactive); in assay [8] it was 15.1 µM (inactive).

`O=C(O)CCC(=O)Oc1ccc(O)c2c1CCCC2=O`: the GI50 in [1], in assay [2], in assay [3], in assay [9], in [5] and in assay [6] was > 100 µM (inactive) each time. For the same molecule, the GI50 is 0.316 µM (active) in assay [7] and > 100 µM (inactive) in [8].

Turning to `NC(=O)Cn1c(=O)[nH]c(=O)c2[nH]cnc21`, the GI50 in [1], in [2], in [9], in assay [5] and in assay [6] was > 100 µM (inactive) in each case.

With `CCOC(=O)C1CC(=O)C=C2CCCCC21` (centres undefined), the GI50 in assay [1], in [3], in [4], in assay [5], in assay [6] and in assay [7] was > 100 µM (inactive) in each case. In addition, in assay [8], the GI50 was > 100 µM (inactive).

For the molecule `O=c1[nH]c(=O)n([C@H]2C[C@@H](CO)[C@@H](O)C2)cc1I`, the GI50 in [1], in assay [2], in [3], in [9], in assay [5] and in [6] was > 100 µM (inactive) in each case. Besides, the GI50 in assay [8] was > 100 µM (inactive).

Consider `O=C1NCC2=C1CCC1c3ccccc3CCN21` (centres undefined), for which the GI50 in [1], in assay [2], in assay [3], in assay [5], in [6] and in assay [7] was > 100 µM (inactive) each time. Further, the GI50 in assay [8] is > 100 µM (inactive).

Take `CC1(C)OCC([C@H]2CC23SCCCS3)O1` (some centres undefined): the GI50 in [1], in assay [2], in [3], in assay [9], in [5] and in [6] was > 100 µM (inactive) in each case. The GI50 in assay [7] and in [8] was > 100 µM (inactive) throughout.

For `O=C1NC(Cc2ccc(O)cc2)C(=O)N2CCCC12` (centres undefined), the GI50 in assay [1], in [2], in [3], in assay [4], in assay [9] and in assay [5] was > 100 µM (inactive) throughout. Besides, the GI50 in assay [6] and in assay [8] was > 100 µM (inactive) throughout.

Take `COc1ccc2nc(-c3ccc(O)cc3)ccc2c1`: the GI50 in assay [1] was > 100 µM (inactive); in assay [2] it was > 100 µM (inactive); in [3] it was 97.1 µM (inactive); in assay [9] it was > 100 µM (inactive); in assay [5] it was > 100 µM (inactive); in assay [8] it was > 100 µM (inactive).

Regarding `CC[C@@H]1OC2(C)CC(S(=O)(=O)c3ccccc3O)CC1O2` (some centres undefined), the GI50 in [2], in [4], in assay [9], in [5], in assay [6] and in [8] was > 100 µM (inactive) in each case.

Consider `N#CC(C#N)=C1NC(=O)C(c2ccccc2)C(=O)N1` (centres undefined), for which the GI50 in assay [1], in assay [2], in assay [3], in assay [4], in assay [5] and in assay [6] was > 100 µM (inactive) each time. For the same molecule, the GI50 in assay [7] and in assay [8] was > 100 µM (inactive) in each case.

In the case of `CCOc1ccc(/C(C=O)=C(\Cl)c2ccc(OC)cc2)cc1`, the GI50 in [1] was 40.5 µM (inactive); in [2], > 100 µM (inactive); in assay [3] it was > 100 µM (inactive); in assay [9], 42.3 µM (inactive); in assay [5], > 100 µM (inactive); in assay [6] it was > 100 µM (inactive). The GI50 in assay [7] and in [8] was > 100 µM (inactive) throughout.

On to `CCCCCCCCC[C@@H]1CC(=O)OCC2OC(O[C@H](CCCCCCCCC)CC(=O)OCC3OC(O[C@H](CCCCCCCCC)CC(=O)OCC4OC(O1)C(O)C(O)C4O)C(O)C(O)C3O)C(O)C(O)C2O` (some centres undefined), for which the GI50 in [1] was 8.89 µM (inactive); in assay [2], 6.46 µM (inactive); in assay [3] it was 17.3 µM (inactive); in assay [9], < 0.01 µM (active); in assay [5] it was 6.53 µM (inactive); in assay [6] it was 8.65 µM (inactive). Moreover, the GI50 in [7] is 7.74 µM (inactive); in [8], 14 µM (inactive).

`CCCC(=O)N[C@H]1C2C3CC4C5CC(C42)C1(C)C53` (some centres undefined): the GI50 in assay [2], in [3], in [9], in assay [6] and in assay [8] was > 100 µM (inactive) each time.

On to `COCCOCOC(C)(C)[C@H](CCOC(C)=O)O[Si](c1ccccc1)(c1ccccc1)C(C)(C)C`, for which the GI50 is 12.6 µM (inactive) in assay [1]; 18.7 µM (inactive) in assay [2]; 22.9 µM (inactive) in [3]; 13.4 µM (inactive) in assay [4]; 30.3 µM (inactive) in [9]; 7.33 µM (inactive) in assay [5]. The GI50 is 5.3 µM (inactive) in [6] and 13.5 µM (inactive) in assay [8].

As for `C[C@]12CCC(=O)C=C1CC[C@@H]1[C@@H]2C(=O)C[C@@]2(C)[C@H]1CC[C@]2(O)C(=O)CO` [CORTISONE], the GI50 in assay [1], in assay [2], in assay [9], in [5], in [6] and in [7] was > 100 µM (inactive) in each case. In assay [8], the GI50 is > 100 µM (inactive).

On to `CCOC(=O)Nc1ccc2c(c1)N(C(=O)CCN(CC)CC)c1ccccc1S2` [ETHACIZINE], for which the GI50 in assay [1] was 18.2 µM (inactive); in assay [2] it was 19.3 µM (inactive); in [3] it was 5.18 µM (inactive); in [9], 42 µM (inactive); in assay [5], 19 µM (inactive); in assay [6], 27 µM (inactive). For the same molecule, the GI50 in assay [7] is 18.1 µM (inactive); in assay [8], 29.1 µM (inactive).

Regarding `O=C(/C=C/c1ccco1)c1ccc(NCc2nc3ccccc3[nH]2)cc1`, the GI50 in assay [1] is 12 µM (inactive); in assay [2], 18.7 µM (inactive); in assay [3] it was 21.3 µM (inactive); in assay [9], 20.9 µM (inactive); in assay [5] it was 14.3 µM (inactive); in assay [6], 17.5 µM (inactive). Besides, the GI50 in [8] is 15 µM (inactive).

In the case of `C[C@H]1CC[P+](Cc2ccccc2)(c2ccccc2)C1` (some centres undefined), the GI50 in assay [1] was 23 µM (inactive); in assay [2] it was 93.5 µM (inactive); in [9], > 100 µM (inactive); in assay [5] it was 26.4 µM (inactive); in assay [6], > 100 µM (inactive); in assay [7], < 0.01 µM (active). The GI50 in assay [8] was > 100 µM (inactive).

Regarding `Cn1ccnc1CCc1ccc(Cl)cc1Cl`, the GI50 in assay [1] is 56.8 µM (inactive); in assay [2], > 100 µM (inactive); in assay [3], > 100 µM (inactive); in assay [4], > 100 µM (inactive); in assay [9], > 100 µM (inactive); in assay [5], > 100 µM (inactive). In addition, the GI50 in [6] and in assay [8] was > 100 µM (inactive) throughout.

These data come from ChEMBL document CHEMBL1201862, “PubChem BioAssay data set” (2004).
